The target of this assay is T1, recombinant human GST-SYK (Homo sapiens, UniProt P43405).
T1 construct: purchased Carna Biosciences 08-176
The assay is described as follows: Homogeneous Time-Resolved Fluorescence (HTRF) assay for the recombinant human Syk enzyme. Format: biochemical. Particulars: HTRF assay, recombinant human GST-SYK; IC50 given as class symbols; read-out: rhSYK Activity. Put shortly: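 Phosphotyrosine product from a biotinylated Syk substrate peptide was detected by HTRF (europium antibody/SA-APC, read after 30 min) following a 45-minute room-temperature reaction at 25 μM ATP, with […] preincubated 10 minutes with inhibitor.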
With `Cc1cc(Nc2nccc(C)n2)cc(-c2cccc(CCC(=O)O)n2)c1` [Example 2.35, 3-(6-{3-methyl-5-[(4-methylpyrimidin-2-yl)amino]phenyl}pyridin-2-yl)propanoic acid], the IC50 lay within 100 to 1000 nM. For `Cc1cc(Nc2nccc(C(F)(F)F)n2)cc(-c2ccc(N)nc2)c1` [Example 4.2, N-[3-(6-aminopyridin-3-yl)-5-methylphenyl]-4-(trifluoromethyl)pyrimidin-2-amine], the IC50 is less than 100 nM. Take `CCOC(=O)CCc1ccc(-c2cc(C)cc(Nc3nccc(C)n3)c2)cn1` [Example 2.87, ethyl 3-(5-{3-methyl-5-[(4-methylpyrimidin-2-yl)amino]phenyl}pyridin-2-yl)propanoate]: the IC50 lay in the range of 100 to 1000 nM. In the case of `Cc1cc(Nc2nccc(C(F)(F)F)n2)cc(-c2ccc(N[C@@H](CC(C)C)C(=O)O)nc2)c1` [Example 7.111, N-[5-(3-methyl-5-{[4-(trifluoromethyl)pyrimidin-2-yl]amino}phenyl)pyridin-2-yl]-L-leucine], the IC50 was less than 100 nM. Consider `Cc1cc(Nc2nccc(C(F)(F)F)n2)cc(-c2ccc(N3CCN(C)CC3)nc2)c1` [Example 7.46, N-{3-methyl-5-[6-(4-methylpiperazin-1-yl)pyridin-3-yl]phenyl}-4-(trifluoromethyl)pyrimidin-2-amine], for which the IC50 is less than 100 nM. Turning to `Cc1cc(Nc2nccc(C(F)(F)F)n2)cc(-c2cncc(C3(O)COC(C)(C)OC3)c2)c1` [Example 9.78, 2,2-dimethyl-5-[5-(3-methyl-5-{[4-(trifluoromethyl)pyrimidin-2-yl]amino}phenyl)pyridin-3-yl]-1,3-dioxan-5-ol], the IC50 was 100 to 1000 nM. Turning to `Cc1cc(Nc2nccc(C(F)(F)F)n2)cc(-c2ccc(N3CCCC(F)(F)C3)nc2)c1` [Example 7.53, N-{3-[6-(3,3-difluoropiperidin-1-yl)pyridin-3-yl]-5-methylphenyl}-4-(trifluoromethyl)pyrimidin-2-amine], the IC50 lay within 100 to 1000 nM. For `Cc1cc(Nc2nccc(C(F)(F)F)n2)cc(-c2ccc(CC(F)(F)C(=O)O)nc2)c1` [Example 24.3, 2,2-Difluoro-3-[5-(3-methyl-5-{[4-(trifluoromethyl)pyrimidin-2-yl]amino}phenyl)pyridin-2-yl]propanoic acid], the IC50 is less than 100 nM. `Cc1cc(Nc2nccc(C(F)(F)F)n2)cc(-c2ccc(NCCCC(=O)O)nc2)c1` [Example 7.102, 4-{[5-(3-methyl-5-{[4-(trifluoromethyl)pyrimidin-2-yl]amino}phenyl)pyridin-2-yl]amino}butanoic acid]: the IC50 is less than 100 nM. As for `Cc1cc(Nc2nccc(C(F)(F)F)n2)cc(-c2ccc(C34CCC(C(=O)O3)C(C)(C)C4)nc2)c1` (single isomer, unassigned) [Example 9.9, (1R,4S or 1S,4R)-5,5-dimethyl-1-[5-(3-methyl-5-{[4-(trifluoromethyl)pyrimidin-2-yl]amino}phenyl)pyridin-2-yl]-2-oxabicyclo[2.2.2]octan-3-one], the IC50 was in the range of 100 to 1000 nM. As for `Cc1cc(Nc2nccc(C(F)(F)F)n2)cc(-c2ccc(C3(O)CCC(C(=O)O)C3(C)C)nc2)c1` (centres unmarked) [Example 9.22, 3-hydroxy-2,2-dimethyl-3-[5-(3-methyl-5-{[4-(trifluoromethyl)pyrimidin-2-yl]amino}phenyl)pyridin-2-yl]cyclopentanecarboxylic acid], the IC50 is less than 100 nM.

As for `CCNC(=O)Nc1cc(Nc2nccc(C(F)(F)F)n2)cc(-c2cccnc2)c1` [Example 6.3, 1-ethyl-3-(3-pyridin-3-yl-5-{[4-(trifluoromethyl)pyrimidin-2-yl]amino}phenyl)urea], the IC50 is less than 100 nM.

For the molecule `Cc1cc(Nc2ncc(F)c(C)n2)cc(-c2ccc(N[C@H]3CC[C@H](C(=O)O)CC3)nc2)c1` [Example 2.120, trans-4-[(5-{3-[(5-fluoro-4-methylpyrimidin-2-yl)amino]-5-methylphenyl}pyridin-2-yl)amino]cyclohexanecarboxylic acid], the IC50 was less than 100 nM. On to `Cc1cc(Nc2nccc(C(F)(F)F)n2)cc(-c2ccc(C(=O)NCc3cn(C)cn3)nc2)c1` [Example 16.17, N-[(1-methyl-1H-imidazol-4-yl)methyl]-5-(3-methyl-5-{[4-(trifluoromethyl)pyrimidin-2-yl]amino}phenyl)pyridine-2-carboxamide], for which the IC50 is 100 to 1000 nM.

For `O=C(O)CCc1ccc(-c2cccc(Nc3nccc(C(F)(F)F)n3)c2)nc1` [Example 2.16, 3-[6-(3-{[4-(trifluoromethyl)pyrimidin-2-yl]amino}phenyl)pyridin-3-yl]propanoic acid], the IC50 was 100 to 1000 nM. As to `Cc1cc(Nc2nccc(C(F)(F)F)n2)cc(-c2ccnc(N3CCCC3C(N)=O)c2)c1` (centres unmarked) [Example 15.55, 1-[4-(3-methyl-5-{[4-(trifluoromethyl)pyrimidin-2-yl]amino}phenyl)pyridin-2-yl] prolinamide], the IC50 is less than 100 nM. As for `CNc1ncc(-c2cc(C)cc(Nc3nccc(C(F)(F)F)n3)c2)cc1C(=O)O` [Example 2.74, 2-(methylamino)-5-(3-methyl-5-{[4-(trifluoromethyl)pyrimidin-2-yl]amino}phenyl)pyridine-3-carboxylic acid], the IC50 was less than 100 nM. For the molecule `Cc1cc(Nc2nccc(C(F)(F)F)n2)cc(-c2ccnc(N[C@@H]3CCC(=O)NC3)c2)c1` [Example 15.66, (5R)-5-{[4-(3-methyl-5-{[4-(trifluoromethyl)pyrimidin-2-yl]amino}phenyl)pyridin-2-yl]amino}piperidin-2-one], the IC50 is less than 100 nM.

Take `Cc1cc(Nc2nccc(C(F)(F)F)n2)cc(-c2cncc(NCC(=O)O)c2)c1` [Example 15.20, N-[5-(3-methyl-5-{[4-(trifluoromethyl)pyrimidin-2-yl]amino}phenyl)pyridin-3-yl]glycine]: the IC50 is less than 100 nM.

In the case of `Cc1cc(Nc2nccc(C(F)(F)F)n2)cc(-c2ccc(C(O)C(C)(C)C(=O)O)nc2)c1` (centres unmarked) [Example 23.1, 3-Hydroxy-2,2-dimethyl-3-[5-(3-methyl-5-{[4-(trifluoromethyl)pyrimidin-2-yl]amino}phenyl)pyridin-2-yl]propanoic acid], the IC50 was less than 100 nM. Turning to `Cc1cc(Nc2nccc(C(F)(F)F)n2)cc(-c2ccc(C3(O)CCC(=O)CC3)nc2)c1` [Example 9.54, 4-hydroxy-4-[5-(3-methyl-5-{[4-(trifluoromethyl)pyrimidin-2-yl]amino}phenyl)pyridin-2-yl]cyclohexanone], the IC50 was less than 100 nM. Turning to `CC[C@H](Nc1ccc(-c2cc(C)cc(Nc3nccc(C(F)(F)F)n3)c2)cn1)C(=O)O` [Example 7.103, (2S)-2-{[5-(3-methyl-5-{[4-(trifluoromethyl)pyrimidin-2-yl]amino}phenyl)pyridin-2-yl]amino}butanoic acid], the IC50 is less than 100 nM. As for `Cc1cc(Nc2nccc(C(F)(F)F)n2)cc(-c2ccc(C(=O)NCCS(N)(=O)=O)nc2)c1` [Example 16.50, 5-(3-methyl-5-{[4-(trifluoromethyl)pyrimidin-2-yl]amino}phenyl)-N-(2-sulfamoylethyl)pyridine-2-carboxamide], the IC50 was less than 100 nM. As to `Cc1cc(Nc2nccc(C(F)(F)F)n2)cc(-c2ccnc(NCC(C)O)c2)c1` (centres unmarked) [Example 15.72, 1-{[4-(3-methyl-5-{[4-(trifluoromethyl)pyrimidin-2-yl]amino}phenyl)pyridin-2-yl]amino}propan-2-ol], the IC50 is less than 100 nM. Regarding `Cc1cc(Nc2nccc(C(F)(F)F)n2)cc(-c2ccc(C(=O)N(C)CC3COCCO3)nc2)c1` (centres unmarked) [Example 16.38, N-(1,4-dioxan-2-ylmethyl)-N-methyl-5-(3-methyl-5-{[4-(trifluoromethyl)pyrimidin-2-yl]amino}phenyl)pyridine-2-carboxamide], the IC50 fell in the range of 100 to 1000 nM. Consider `Cc1cc(Nc2nccc(C(F)(F)F)n2)cc(-c2ccc(N3CCCC[C@H]3C(=O)O)nc2)c1` [Example 7.120, (2S)-1-[5-(3-methyl-5-{[4-(trifluoromethyl)pyrimidin-2-yl]amino}phenyl)pyridin-2-yl]piperidine-2-carboxylic acid], for which the IC50 was less than 100 nM. For `CC(=O)NCCN(C)c1cc(-c2cc(C)cc(Nc3nccc(C(F)(F)F)n3)c2)ccn1` [Example 15.65, N-(2-{methyl[4-(3-methyl-5-{[4-(trifluoromethyl)pyrimidin-2-yl]amino}phenyl)pyridin-2-yl]amino}ethyl)acetamide], the IC50 is 100 to 1000 nM.

In the case of `CC(=O)Nc1cc(Nc2nccc(C(F)(F)F)n2)cc(-c2ccc(NC3CCNC3=O)nc2)c1` (centres unmarked) [Example 7.3, N-(3-{6-[(2-oxopyrrolidin-3-yl)amino]pyridin-3-yl}-5-{[4-(trifluoromethyl)pyrimidin-2-yl]amino}phenyl)acetamide], the IC50 is less than 100 nM. `Cc1cc(Nc2nccc(C(F)(F)F)n2)cc(-c2ccnc(NC(C)(CO)CO)c2)c1` [Example 15.49, 2-methyl-2-{[4-(3-methyl-5-{[4-(trifluoromethyl)pyrimidin-2-yl]amino}phenyl)pyridin-2-yl]amino}propane-1,3-diol]: the IC50 is less than 100 nM. `Cc1cc(Nc2nccc(C(F)(F)F)n2)cc(-c2ccc(N3CC(C4CCCC(C(=O)O)C4)C3)nc2)c1` (centres unmarked) [Example 7.146, 3-{1-[5-(3-methyl-5-{[4-(trifluoromethyl)pyrimidin-2-yl]amino}phenyl)pyridin-2-yl]azetidin-3-yl}cyclohexanecarboxylic acid]: the IC50 is less than 100 nM.

`Cc1cc(Nc2nccc(C(F)(F)F)n2)cc(-c2ccc(C(=O)N3CCC(C)(O)CC3)nc2)c1` [Example 16.48, 4-methyl-1-{[5-(3-methyl-5-{[4-(trifluoromethyl)pyrimidin-2-yl]amino}phenyl)pyridin-2-yl]carbonyl}piperidin-4-ol]: the IC50 is less than 100 nM.

In the case of `Cc1cc(Nc2nccc(C(F)(F)F)n2)cc(-c2ccc(N3CCC(C(=O)O)CC3)nc2)c1` [Example 7.136, 1-[5-(3-methyl-5-{[4-(trifluoromethyl)pyrimidin-2-yl]amino}phenyl)pyridin-2-yl]piperidine-4-carboxylic acid], the IC50 is less than 100 nM.

The values above are taken from patent US9376418B2, “Substituted pyridine spleen tyrosine kinase (SYK) inhibitors” (Merck Sharp & Dohme Corp., priority 2012, dated 2016).
